Assay results published in ChEMBL document CHEMBL1201862, “PubChem BioAssay data set” (2004).
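96-well plates; 48 h exposure; 5 concentrations. Endpoints by linear interpolation between flanking doses. Not reached: highest tested concentration assigned. Abbreviation: GI50, concentration required for 50% inhibition of growth.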 Calls of active or inactive are those of the source. Cut-off read from the data, not from the text of the source: active = GI50 up to about 1.1 µM and inactive = higher.

Columns and labels:
Experiment in all cases: NCI tumour cell line growth inhibition, 48 h
[1] = tested on: MCF7
[2] = tested on: Malme-3M
[3] = tested on: T47D
[4] = tested on: TK-10
[5] = tested on: DU-145
[6] = tested on: U-251
[7] = tested on: SK-MEL-28
[8] = tested on: MOLT-4
[9] = tested on: NCI-H522
[10] = tested on: MDA-N
[11] = tested on: HT-29
[12] = tested on: SK-MEL-5
[13] = tested on: HL-60
[14] = tested on: BT-549
[15] = tested on: UACC-62
[16] = tested on: A549
[17] = tested on: OVCAR-3
[18] = tested on: UACC-257
[19] = tested on: SF-295
[20] = tested on: NCI-H226
[21] = tested on: SN12C
[22] = tested on: M14
[23] = tested on: RXF 393
[24] = tested on: COLO 205
[25] = tested on: HCT-116
[26] = tested on: K562
[27] = tested on: ACHN
[28] = tested on: HOP-92
[29] = tested on: OVCAR-5
[30] = tested on: SW-620
[31] = tested on: SNB-75
[32] = tested on: Hs-578T
[33] = tested on: PC-3
[34] = tested on: SF-539
[35] = tested on: SNB-19
[36] = tested on: HOP-62
[37] = tested on: UO-31
[38] = tested on: LOX IMVI
[39] = tested on: IGROV-1
[40] = tested on: NCI-H460
[41] = tested on: OVCAR-4
[42] = tested on: CCRF-CEM
[43] = tested on: NCI-H23
[44] = tested on: EKVX
[45] = tested on: HCT-15
[46] = tested on: SF-268
[47] = tested on: HCC 2998
[48] = tested on: CAKI-1
[49] = tested on: KM12
[50] = tested on: SR
[51] = tested on: SK-MEL-2
[52] = tested on: OVCAR-8
[53] = tested on: NCI/ADR-RES
[54] = tested on: SK-OV-3
[55] = tested on: MDA-MB-231
[56] = tested on: A498
[57] = tested on: MDA-MB-435
[58] = tested on: 786-0
[59] = tested on: RPMI-8226

With `COc1cc2c(c(OC)c1)C(=O)O[C@H](C)CCCC/C=C/C2` the GI50 [1] was 11.6 µM (inactive), the GI50 [2] was 13.1 µM (inactive) and the GI50 [3] was 9.16 µM (inactive). The GI50 [4] was 15.8 µM (inactive), the GI50 [5] was 11.7 µM (inactive) and the GI50 [6] was 9.79 µM (inactive). For the same compound, the GI50 [7] was 23.2 µM (inactive), the GI50 [8] was 7.31 µM (inactive) and the GI50 [9] was 8.09 µM (inactive). The GI50 [10] was 8.63 µM (inactive), the GI50 [11] was 35 µM (inactive) and the GI50 [12] was 5.71 µM (inactive). For the same compound, the GI50 [13] was 0.824 µM (active), the GI50 [14] was 13.4 µM (inactive) and the GI50 [15] was 8.93 µM (inactive). For the same compound, the GI50 [16] was 30.6 µM (inactive), the GI50 [17] was 9.38 µM (inactive) and the GI50 [18] was 10.9 µM (inactive). The GI50 [19] was 13.6 µM (inactive), the GI50 [20] was 45.6 µM (inactive) and the GI50 [21] was 7.14 µM (inactive). For the same compound, the GI50 [22] was 12.7 µM (inactive), the GI50 [23] was 9.95 µM (inactive) and the GI50 [24] was 10.9 µM (inactive). For the same compound, the GI50 [25] was 8.61 µM (inactive), the GI50 [26] was 6.24 µM (inactive) and the GI50 [27] was 12.5 µM (inactive). The GI50 [28] was 9.77 µM (inactive), the GI50 [29] was 15.1 µM (inactive) and the GI50 [30] was 7.94 µM (inactive). The GI50 [31] was 14.1 µM (inactive), the GI50 [32] was 20.9 µM (inactive) and the GI50 [33] was 7.78 µM (inactive). The GI50 [34] was 10.9 µM (inactive), the GI50 [35] was 16.2 µM (inactive) and the GI50 [36] was 8.15 µM (inactive). For the same compound, the GI50 [37] was 13.5 µM (inactive), the GI50 [38] was 4.73 µM (inactive) and the GI50 [39] was 9.06 µM (inactive). The GI50 [40] was 11.1 µM (inactive), the GI50 [41] was 12.1 µM (inactive) and the GI50 [42] was 2.26 µM (inactive). The GI50 [43] was 11.2 µM (inactive), the GI50 [44] was 11.7 µM (inactive) and the GI50 [45] was 10.2 µM. The GI50 [46] was 8.17 µM (inactive), the GI50 [47] was 15.8 µM (inactive) and the GI50 [48] was 10.4 µM (inactive). For the same compound, the GI50 [49] was 9.35 µM (inactive), the GI50 [50] was > 53.5 µM (inactive) and the GI50 [51] was 12.1 µM (inactive). For the same compound, the GI50 [52] was 33.3 µM (inactive), the GI50 [53] was 29.2 µM (inactive) and the GI50 [54] was 45.9 µM (inactive). For the same compound, the GI50 [55] was 10.9 µM (inactive), the GI50 [56] was 39.7 µM (inactive) and the GI50 [57] was 4.73 µM (inactive). For the same compound, the GI50 [58] was 10.9 µM (inactive) and the GI50 [59] was 9.12 µM (inactive).

`COP(=N[Si](C)(C)C)(OC)OC` was tested, and the GI50 [1] was > 100 µM (inactive), the GI50 [2] was > 100 µM (inactive) and the GI50 [3] was > 100 µM (inactive). The GI50 [4] was > 100 µM (inactive), the GI50 [5] was > 100 µM (inactive) and the GI50 [6] was > 100 µM (inactive). The GI50 [7] was > 100 µM (inactive), the GI50 [8] was > 100 µM (inactive) and the GI50 [9] was > 100 µM (inactive). For the same compound, the GI50 [10] was > 100 µM (inactive), the GI50 [11] was > 100 µM (inactive) and the GI50 [12] was > 100 µM (inactive). For the same compound, the GI50 [13] was > 100 µM (inactive), the GI50 [14] was > 100 µM (inactive) and the GI50 [15] was > 100 µM (inactive). For the same compound, the GI50 [16] was > 100 µM (inactive), the GI50 [17] was > 100 µM (inactive) and the GI50 [18] was > 100 µM (inactive). The GI50 [20] was > 100 µM (inactive), the GI50 [21] was > 100 µM (inactive) and the GI50 [22] was > 100 µM (inactive). For the same compound, the GI50 [23] was > 100 µM (inactive), the GI50 [24] was > 100 µM (inactive) and the GI50 [25] was > 100 µM (inactive). For the same compound, the GI50 [26] was > 100 µM (inactive), the GI50 [27] was > 100 µM (inactive) and the GI50 [28] was > 100 µM (inactive). The GI50 [29] was > 100 µM (inactive), the GI50 [30] was > 100 µM (inactive) and the GI50 [31] was > 100 µM (inactive). The GI50 [32] was > 100 µM (inactive), the GI50 [33] was > 100 µM (inactive) and the GI50 [34] was > 100 µM (inactive). For the same compound, the GI50 [35] was > 100 µM (inactive), the GI50 [36] was > 100 µM (inactive) and the GI50 [37] was > 100 µM (inactive). The GI50 [38] was > 100 µM (inactive), the GI50 [39] was > 100 µM (inactive) and the GI50 [40] was > 100 µM (inactive). The GI50 [41] was > 100 µM (inactive), the GI50 [42] was > 100 µM (inactive) and the GI50 [43] was > 100 µM (inactive). The GI50 [44] was > 100 µM (inactive), the GI50 [45] was over 100 µM and the GI50 [46] was > 100 µM (inactive). For the same compound, the GI50 [47] was > 100 µM (inactive), the GI50 [48] was > 100 µM (inactive) and the GI50 [49] was > 100 µM (inactive). The GI50 [50] was > 100 µM (inactive), the GI50 [51] was > 100 µM (inactive) and the GI50 [52] was > 100 µM (inactive). For the same compound, the GI50 [53] was > 100 µM (inactive), the GI50 [54] was > 100 µM (inactive) and the GI50 [55] was > 100 µM (inactive). For the same compound, the GI50 [56] was > 100 µM (inactive), the GI50 [57] was > 100 µM (inactive) and the GI50 [58] was > 100 µM (inactive). For the same compound, the GI50 [59] was > 100 µM (inactive).

With `Cc1c(C#N)c2nnn(-c3cccc(Cl)c3)c(=O)n2c1-c1ccccc1` the GI50 [1] was 4.02 µM (inactive), the GI50 [2] was 9.48 µM (inactive) and the GI50 [3] was 4.25 µM (inactive). For the same compound, the GI50 [4] was 9.91 µM (inactive), the GI50 [5] was 3.46 µM (inactive) and the GI50 [6] was 2.33 µM (inactive). For the same compound, the GI50 [7] was 32.3 µM (inactive), the GI50 [9] was 1.93 µM (inactive) and the GI50 [10] was 0.428 µM (active). For the same compound, the GI50 [11] was 1.28 µM (inactive), the GI50 [12] was 3.84 µM (inactive) and the GI50 [13] was 3.28 µM (inactive). For the same compound, the GI50 [14] was 18.1 µM (inactive), the GI50 [15] was 4.43 µM (inactive) and the GI50 [16] was 4.5 µM (inactive). For the same compound, the GI50 [17] was 1.65 µM (inactive), the GI50 [18] was 26.3 µM (inactive) and the GI50 [19] was 1.45 µM (inactive). For the same compound, the GI50 [20] was 2.25 µM (inactive), the GI50 [21] was 3.83 µM (inactive) and the GI50 [22] was 4.17 µM (inactive). For the same compound, the GI50 [23] was 1.85 µM (inactive), the GI50 [24] was 0.849 µM (active) and the GI50 [25] was 2.03 µM (inactive). For the same compound, the GI50 [26] was 0.541 µM (active), the GI50 [27] was 6.4 µM (inactive) and the GI50 [28] was 26 µM (inactive). The GI50 [29] was 3.75 µM (inactive), the GI50 [30] was 4.3 µM (inactive) and the GI50 [31] was 1.76 µM (inactive). For the same compound, the GI50 [32] was 6.64 µM (inactive), the GI50 [33] was 0.875 µM (active) and the GI50 [34] was 1.59 µM (inactive). For the same compound, the GI50 [35] was 10.3 µM (inactive), the GI50 [36] was 0.891 µM (active) and the GI50 [37] was 8.97 µM (inactive). The GI50 [38] was 7.5 µM (inactive), the GI50 [39] was 2.54 µM (inactive) and the GI50 [40] was 3.15 µM (inactive). The GI50 [41] was 8.61 µM (inactive), the GI50 [42] was 3.66 µM (inactive) and the GI50 [43] was 8.77 µM (inactive). The GI50 [44] was 5.69 µM (inactive), the GI50 [45] was 3.83 µM and the GI50 [46] was 6.81 µM (inactive). For the same compound, the GI50 [47] was 3.48 µM (inactive), the GI50 [48] was 6.62 µM (inactive) and the GI50 [49] was 0.895 µM (active). The GI50 [50] was 0.301 µM (active), the GI50 [51] was 1.27 µM (inactive) and the GI50 [52] was 5.31 µM (inactive). For the same compound, the GI50 [53] was 3.1 µM (inactive), the GI50 [54] was 3.08 µM (inactive) and the GI50 [55] was 1.57 µM (inactive). The GI50 [56] was 2.36 µM (inactive), the GI50 [57] was 0.566 µM (active) and the GI50 [58] was 2.99 µM (inactive). For the same compound, the GI50 [59] was 0.637 µM (active).
